Among the data in patent US11472811B2, “Pyrazolotriazolopyrimidine derivatives as A2A receptor antagonist” (BEIGENE, LTD., priority 2018, dated 2022) are IC50 values, retold here.

For orientation: IC50 means the point on the concentration scale where inhibition reaches its midpoint. A low value points to inhibition by little substance.

This experiment addresses human A2A receptor (A2AR) (Homo sapiens (Human), UniProt P29274). Briefly: Luciferase reporter assay (HEK293-A2AR-luc2p/CRE/Hygro cells). The class given is cell-based. To be noted: 3 nM CGS21680, 5 h incubation. The procedure, abridged: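 HEK293 cells stably expressing human A2AR and a CRE-luc2P reporter were seeded in 1% FBS with 1 U/mL adenosine deaminase. After 18 h they were stimulated 5 h with 3 nM CGS21680 plus compound (0.1–10000 nM), then luciferase luminescence was read. IC50 was taken from inhibition curves, with CGS21680 alone set as 100%.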
Background: In a reporter assay the amount or activity of a reporter protein is the signal.

Structures are written as SMILES.

Sequence of human A2A receptor (A2AR) (P29274 whole entry): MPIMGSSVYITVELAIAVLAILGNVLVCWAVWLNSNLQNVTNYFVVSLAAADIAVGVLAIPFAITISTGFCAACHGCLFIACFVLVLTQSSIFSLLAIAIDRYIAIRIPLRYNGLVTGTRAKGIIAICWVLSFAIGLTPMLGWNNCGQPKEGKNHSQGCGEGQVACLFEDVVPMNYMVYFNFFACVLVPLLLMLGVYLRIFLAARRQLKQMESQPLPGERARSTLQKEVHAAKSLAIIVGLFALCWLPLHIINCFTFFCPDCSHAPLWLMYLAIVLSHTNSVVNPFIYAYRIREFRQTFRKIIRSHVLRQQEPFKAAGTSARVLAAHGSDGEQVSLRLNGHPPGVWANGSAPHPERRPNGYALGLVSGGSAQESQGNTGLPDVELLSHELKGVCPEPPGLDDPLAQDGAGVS

`COc1cccc(CNC(=O)[C@@](C)(c2ccccc2)n2ncc3c2nc(N)n2nc(-c4ccco4)nc32)n1` [Example 112B, (R)-2-(5-amino-2-(furan-2-yl)-7H-pyrazolo[4,3-e][1,2,4]triazolo[1,5-c]pyrimidin-7-yl)-N-((6-methoxypyridin-2-yl)methyl)-2-phenylpropanamide] yielded an IC50 of 1.2 nM. Next, `COCCOc1ccc(N2CCC(NC(=O)C(C)(c3ccccc3)n3ncc4c3nc(N)n3nc(-c5ccco5)nc43)CC2)cc1` (stereo not drawn) [Example 46, 2-(5-amino-2-(furan-2-yl)-7H-pyrazolo[4,3-e][1,2,4]triazolo[1,5-c]pyrimidin-7-yl)-N-(1-(4-(2-methoxyethoxy)phenyl)piperidin-4-yl)-2-phenylpropanamide]: 10.9 nM; `Nc1nc2c(cnn2C(C(=O)NCc2ccc(F)cc2)c2ccccc2)c2nc(-c3ccco3)nn12` (stereo not drawn) [Example 26, 2-(5-amino-2-(furan-2-yl)-7H-pyrazolo[4,3-e][1,2,4]triazolo[1,5-c]pyrimidin-7-yl)-N-(4-fluorobenzyl)-2-phenylacetamide]: 2.6 nM; `CC(C(=O)N[C@H]1C[C@H](O)C1)(c1ccccc1)n1ncc2c1nc(N)n1nc(-c3ccco3)nc21` (relative stereo) [Example 102, 2-(5-amino-2-(furan-2-yl)-7H-pyrazolo[4,3-e][1,2,4]triazolo[1,5-c]pyrimidin-7-yl)-(trans)-N-(3-hydroxycyclobutyl)-2-phenylpropanamide]: 13.3 nM. For `Nc1nc2c(cnn2C(C(=O)NC2CCCCC2)c2ccccc2)c2nc(-c3ccco3)nn12` (stereo not drawn) [Example 2, 2-(5-amino-2-(furan-2-yl)-7H-pyrazolo[4,3-e][1,2,4]triazolo[1,5-c]pyrimidin-7-yl)-N-cyclohexyl-2-phenylacetamide] the value was 11.9 nM. For `COc1cccc(C(C)(C(=O)NCC2(O)COC2)n2ncc3c2nc(N)n2nc(-c4ccco4)nc32)c1` (stereo not drawn) [Example 137, 2-(5-amino-2-(furan-2-yl)-7H-pyrazolo[4,3-e][1,2,4]triazolo[1,5-c]pyrimidin-7-yl)-N-((3-hydroxyoxetan-3-yl)methyl)-2-(3-methoxyphenyl)propanamide] the value was 13 nM; for `C[C@](C(=O)NCc1ncccc1C(F)(F)F)(c1ccccc1)n1ncc2c1nc(N)n1nc(-c3ccco3)nc21` [Example 141B, (R)-2-(5-amino-2-(furan-2-yl)-7H-pyrazolo[4,3-e][1,2,4]triazolo[1,5-c]pyrimidin-7-yl)-2-phenyl-N-((3-(trifluoromethyl)pyridin-2-yl)methyl)propanamide], 1.1 nM. Consider `Nc1nc2c(cnn2C(C(=O)NCc2ccccc2OC(F)(F)F)c2ccccc2)c2nc(-c3ccco3)nn12` (stereo not drawn) [Example 8, 2-(5-amino-2-(furan-2-yl)-7H-pyrazolo[4,3-e][1,2,4]triazolo[1,5-c]pyrimidin-7-yl)-2-phenyl-N-(2-(trifluoromethoxy)benzyl)acetamide], for which the IC50 came to 2 nM. Next, `Cc1nccnc1-c1nc2c3cnn(C(C)(C(=O)NCC4(O)COC4)c4ccccc4)c3nc(N)n2n1` (stereo not drawn) [Example 78, 2-(5-amino-2-(3-methylpyrazin-2-yl)-7H-pyrazolo[4,3-e][1,2,4]triazolo[1,5-c]pyrimidin-7-yl)-N-((3-hydroxyoxetan-3-yl)methyl)-2-phenylpropanamide]: 83.3 nM; `COc1ccccc1C(C)(C(=O)NCC1(O)COC1)n1ncc2c1nc(N)n1nc(-c3ccco3)nc21` (stereo not drawn) [Example 70, 2-(5-amino-2-(furan-2-yl)-7H-pyrazolo[4,3-e][1,2,4]triazolo[1,5-c]pyrimidin-7-yl)-N-((3-hydroxyoxetan-3-yl)methyl)-2-(2-methoxyphenyl)propanamide]: 1.7 nM. Next, `Nc1nc2c(cnn2C(C(=O)NCc2cccc(C(F)(F)F)c2)c2ccccc2)c2nc(-c3ccco3)nn12` (stereo not drawn) [Example 22, 2-(5-amino-2-(furan-2-yl)-7H-pyrazolo[4,3-e][1,2,4]triazolo[1,5-c]pyrimidin-7-yl)-2-phenyl-N-(3-(trifluoromethyl)benzyl)acetamide]: 1.4 nM. For `CN1CCN(CCNC(=O)[C@@](C)(c2ccccc2)n2ncc3c2nc(N)n2nc(-c4ccco4)nc32)CC1` [Example 147B, (R)-2-(5-amino-2-(furan-2-yl)-7H-pyrazolo[4,3-e][1,2,4]triazolo[1,5-c]pyrimidin-7-yl)-N-(2-(4-methylpiperazin-1-yl)ethyl)-2-phenylpropanamide] the value was 18.9 nM; for `Nc1nc2c(cnn2C(C(=O)NCC2(O)COC2)c2ccccc2)c2nc(-c3ccco3)nn12` (stereo not drawn) [Example 82, 2-(5-amino-2-(furan-2-yl)-7H-pyrazolo[4,3-e][1,2,4]triazolo[1,5-c]pyrimidin-7-yl)-N-((3-hydroxyoxetan-3-yl)methyl)-2-phenylacetamide], 4.5 nM; for `CC(C(=O)N[C@@H]1CNC(=O)C1)(c1ccccc1)n1ncc2c1nc(N)n1nc(-c3ccco3)nc21` (stereo partly drawn) [Example 100, 2-(5-amino-2-(furan-2-yl)-7H-pyrazolo[4,3-e][1,2,4]triazolo[1,5-c]pyrimidin-7-yl)-N—((S)-5-oxopyrrolidin-3-yl)-2-phenylpropanamide], 11.8 nM. In turn, `C[C@](C(=O)NCc1ccc(F)cn1)(c1ccccc1)n1ncc2c1nc(N)n1nc(-c3ccco3)nc21` [Example 117B, (R)-2-(5-amino-2-(furan-2-yl)-7H-pyrazolo[4,3-e][1,2,4]triazolo[1,5-c]pyrimidin-7-yl)-N-((5-fluoropyridin-2-yl)methyl)-2-phenylpropanamide] yielded an IC50 of 3.2 nM. Next, `CC(C(=O)NCCO)(c1ccccc1)n1ncc2c1nc(N)n1nc(-c3ccco3)nc21` (stereo not drawn) [Example 55, 2-(5-amino-2-(furan-2-yl)-7H-pyrazolo[4,3-e][1,2,4]triazolo[1,5-c]pyrimidin-7-yl)-N-(2-hydroxyethyl)-2-phenylpropanamide]: 13.8 nM; `C[C@](C(=O)N[C@H]1COC[C@@H]1O)(c1ccccc1)n1ncc2c1nc(N)n1nc(-c3ccco3)nc21` [Example 106B, (R)-2-(5-amino-2-(furan-2-yl)-7H-pyrazolo[4,3-e][1,2,4]triazolo[1,5-c]pyrimidin-7-yl)-N-((3S,4R)-4-hydroxytetrahydrofuran-3-yl)-2-phenylpropanamide]: 41.7 nM. In turn, `CC(Cc1ccccc1)(C(=O)NCC1(O)COC1)n1ncc2c1nc(N)n1nc(-c3ccco3)nc21` (stereo not drawn) [Example 132, 2-(5-amino-2-(furan-2-yl)-7H-pyrazolo[4,3-e][1,2,4]triazolo[1,5-c]pyrimidin-7-yl)-N-((3-hydroxyoxetan-3-yl)methyl)-2-methyl-3-phenylpropanamide] came in with an IC50 of 15.7 nM.

Compound `Cc1cccc(C(C)(C(=O)NCC2(O)COC2)n2ncc3c2nc(N)n2nc(-c4ccco4)nc32)c1` (stereo not drawn) [Example 85, 2-(5-amino-2-(furan-2-yl)-7H-pyrazolo[4,3-e][1,2,4]triazolo[1,5-c]pyrimidin-7-yl)-N-((3-hydroxyoxetan-3-yl)methyl)-2-(m-tolyl)propanamide] gave an IC50 of 7.3 nM. As to `Nc1nc2c(cnn2C(C(=O)NCc2ccc(OC(F)(F)F)cc2)c2ccccc2)c2nc(-c3ccco3)nn12` (stereo not drawn) [Example 24, 2-(5-amino-2-(furan-2-yl)-7H-pyrazolo[4,3-e][1,2,4]triazolo[1,5-c]pyrimidin-7-yl)-2-phenyl-N-(4-(trifluoromethoxy)benzyl)acetamide], 5.6 nM corresponded to half-maximal inhibition (IC50). Next, `CC(C(=O)N[C@H]1CCCOC1)(c1ccccc1)n1ncc2c1nc(N)n1nc(-c3ccco3)nc21` (stereo partly drawn) [Example 59, 2-(5-amino-2-(furan-2-yl)-7H-pyrazolo[4,3-e][1,2,4]triazolo[1,5-c]pyrimidin-7-yl)-2-phenyl-N—((S)-tetrahydro-2H-pyran-3-yl)propanamide]: 11.1 nM; `CC(C(=O)N[C@H]1CC[C@@H](O)C1)(c1ccccc1)n1ncc2c1nc(N)n1nc(-c3ccco3)nc21` (stereo partly drawn) [Example 136, 2-(5-amino-2-(furan-2-yl)-7H-pyrazolo[4,3-e][1,2,4]triazolo[1,5-c]pyrimidin-7-yl)-N-((1S,3R)-3-hydroxycyclopentyl)-2-phenylpropanamide]: 7.9 nM; `CC(C(=O)NCC1(O)COC1)(c1ccccc1)n1ncc2c1nc(N)n1nc(-c3nccs3)nc21` (stereo not drawn) [Example 133, 2-(5-amino-2-(thiazol-2-yl)-7H-pyrazolo[4,3-e][1,2,4]triazolo[1,5-c]pyrimidin-7-yl)-N-((3-hydroxyoxetan-3-yl)methyl)-2-phenylpropanamide]: 15 nM. On to `CC(C(=O)NCc1ncccc1F)(c1ccccc1)n1ncc2c1nc(N)n1nc(-c3ccco3)nc21` (stereo not drawn) [Example 119, 2-(5-amino-2-(furan-2-yl)-7H-pyrazolo[4,3-e][1,2,4]triazolo[1,5-c]pyrimidin-7-yl)-N-((3-fluoropyridin-2-yl)methyl)-2-phenylpropanamide], for which the midpoint of inhibition, the IC50, lay at 3.2 nM. Next, `CC(C(=O)N[C@H]1C[C@@](C)(O)C1)(c1ccccc1)n1ncc2c1nc(N)n1nc(-c3ccco3)nc21` (stereo partly drawn) [Example 105, 2-(5-amino-2-(furan-2-yl)-7H-pyrazolo[4,3-e][1,2,4]triazolo[1,5-c]pyrimidin-7-yl)-N-((1S,3S)-3-hydroxy-3-methylcyclobutyl)-2-phenylpropanamide]: 10.7 nM; `Nc1nc2c(cnn2C(C(=O)N[C@H]2CCOc3ccccc32)c2ccccc2)c2nc(-c3ccco3)nn12` (stereo partly drawn) [Example 16, 2-(5-amino-2-(furan-2-yl)-7H-pyrazolo[4,3-e][1,2,4]triazolo[1,5-c]pyrimidin-7-yl)-N—((S)-chroman-4-yl)-2-phenylacetamide]: 44.6 nM; `Nc1nc2c(cnn2C(C(=O)NCc2cccc(C3(O)CCC3)n2)c2ccccc2)c2nc(-c3ccco3)nn12` (stereo not drawn) [Example 18, 2-(5-amino-2-(furan-2-yl)-7H-pyrazolo[4,3-e][1,2,4]triazolo[1,5-c]pyrimidin-7-yl)-N-((6-(1-hydroxycyclobutyl)pyridin-2-yl)methyl)-2-phenylacetamide]: 0.9 nM.
